{
  "source": "patent US12528816B2",
  "about": "“Substituted imidazo [1,2-b] pyridazines and [1, 2, 4] triazolo [ 4,3-b] pyridazines as camkii inhibitors” (Cardurion Pharmaceuticals, INC., priority 2020, dated 2026)",
  "data": [
    {"target": "T1, human CaMKIIδ (Homo sapiens, UniProt Q13557)", "T1 construct": "Full-length, glutathione-S-transferase(GST)-tagged, human CaMKIIδ was purchased from Carna Biosciences; purchased Carna Biosciences (CaMKIIδ); Wako Pure Chemical Industries (calmodulin) 02-111", "assay": "Evaluation of in vitro CaMKII inhibitory activity (binding assay, TR-FRET)", "settings": "human CaMKIIδ, TR-FRET binding assay; class symbols A/B/C; read-out: Act (CaMKII inhibitory activity, binding assay)", "summary_of_the_method": "(§1)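 Inhibitors, in eight concentrations of 4-fold dilution, were incubated 1 h at room temperature with a protein–fluorescent probe premix preformed 30 min on ice, containing calmodulin and terbium anti-GST antibody. Displacement read by TR-FRET in duplicate; IC50 by logistic fitting.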", "units": {"IC50": "nM"}, "values": [
      {"smiles": "Cc1nn(C)cc1-c1cnn2ccc(-c3ccc(F)c(O[C@@H](C)Cn4cnnn4)c3)nc12", "note": "[compound 142]", "IC50": "10 to 100"},
      {"smiles": "C[C@@H](Cn1cnnn1)Oc1cc(-c2ccc3ncc(-c4cccc(OCC5CCC(=O)N5)c4C#N)n3n2)ccc1F", "note": "(some centres unmarked) [compound 200]", "IC50": "< 10"},
      {"smiles": "C[C@@H](Cn1cnnn1)Nc1cncc(-c2ccc3ncc(-c4cc(F)ccc4C#N)n3n2)n1", "note": "[compound 484]", "IC50": "< 10"},
      {"smiles": "C[C@@H](Cn1cnnn1)Oc1cc(-c2ccc3ncn(-c4cn[nH]c4)c3n2)ccc1F", "note": "[compound 119]", "IC50": "< 10"},
      {"smiles": "C[C@@H](Cn1cnnn1)Oc1cccc(-c2ccn3ncc(-c4cccc(C(=O)Nc5cn[nH]c5)c4)c3n2)c1", "note": "[compound 65]", "IC50": "< 10"},
      {"smiles": "C[C@@H](Cn1cnnn1)Oc1cc(-c2ccc3ncc(-c4cc(C(=O)NCCN5CCOCC5)ccc4C#N)n3n2)ccc1F", "note": "[compound 148]", "IC50": "10 to 100"},
      {"smiles": "C[C@@H](Cn1cnnn1)Oc1cc(-c2ccn3ncc(-c4ccccc4)c3n2)ccc1F", "note": "[compound 5]", "IC50": "< 10"},
      {"smiles": "CC(C)CCNC(=O)c1cccc(-c2cnn3ccc(-c4cccc(O[C@@H](C)Cn5cnnn5)c4)nc23)c1", "note": "[compound 64]", "IC50": "< 10"},
      {"smiles": "C[C@@H](Cn1cnnn1)Oc1cccc(-c2ccn3ncc(-c4cccc(C(=O)NCCc5ccncc5)c4)c3n2)c1", "note": "[compound 107]", "IC50": "< 10"},
      {"smiles": "C[C@@H](Cn1cnnn1)Oc1cc(-c2ccc3ncc(-c4cccc(O)c4C#N)n3n2)ccc1F", "note": "[compound 170]", "IC50": "< 10"},
      {"smiles": "COc1ccnc(-c2cnc3ccc(-c4ccc(F)c(O[C@@H](CO)Cn5cnnn5)c4)nn23)c1C#N", "note": "[Example 477, 2-[6-(4-fluoro-3-{[(2R)-1-hydroxy-3-(1H-tetrazol-1-yl)propan-2-yl]oxy}phenyl)imidazo[1,2-b]pyridazin-3-yl]-4-methoxypyridine-3-carbonitrile]", "IC50": "< 10"},
      {"smiles": "C[C@@H](Cn1cnnn1)Oc1cc(-c2ccn3ncc(-c4cnn(CCN5CCOCC5)c4)c3n2)ccc1F", "note": "[compound 145]", "IC50": "10 to 100"},
      {"smiles": "C[C@@H](Cn1cnnn1)Oc1cc(-c2ccc3ncc(-c4cccc(OCC5CNC(=O)C5)c4C#N)n3n2)ccc1F", "note": "(some centres unmarked) [compound 199]", "IC50": "< 10"},
      {"smiles": "CC(=O)N1CCN(c2ccc(-c3cnn4ccc(-c5ccc(F)c(O[C@@H](C)Cn6cnnn6)c5)nc34)cc2)CC1", "note": "[compound 42]", "IC50": "10 to 100"},
      {"smiles": "C[C@@H](Cn1cnnn1)Oc1cc(-c2ccc3ncn(-c4ccccn4)c3n2)ccc1F", "note": "[compound 153, 2-[5-(4-fluoro-3-{[(2S)-1-(1H-tetrazol-1-yl)propan-2-yl]oxy}phenyl)-3H-imidazo[4,5-b]pyridin-3-yl]pyridine]", "IC50": "< 10"},
      {"smiles": "C[C@@H](Cn1cnnn1)Oc1cc(-c2ccn3ncc(-c4ccnn4C)c3n2)ccc1F", "note": "[compound 24]", "IC50": "10 to 100"},
      {"smiles": "C[C@@H](Cn1cnnn1)Oc1cc(-c2ccn3ncc(-c4ccc(C#N)cc4)c3n2)ccc1F", "note": "[compound 136]", "IC50": "10 to 100"},
      {"smiles": "C[C@@H](Cn1cnnn1)Oc1cc(-c2ccn3ncc(-c4cccc(C(=O)N5CCC(N6CCOCC6)CC5)c4)c3n2)ccc1F", "note": "[compound 10]", "IC50": "< 10"},
      {"smiles": "C[C@@H](Cn1cnnn1)Oc1cc(-c2ccc3ncn(-c4cnn(C(=O)OC(C)(C)C)c4)c3n2)ccc1F", "note": "[compound 118]", "IC50": "< 10"},
      {"smiles": "C[C@@H](Cn1nnc(N)n1)Oc1cccc(-c2ccn3ncc(-c4cccs4)c3n2)c1", "note": "[compound 58]", "IC50": "> 100"},
      {"smiles": "C[C@@H](Cn1cnnn1)Oc1cccc(-c2ccn3ncc(-c4cccc(C(=O)NCC(C)(C)O)c4)c3n2)c1", "note": "[compound 80]", "IC50": "< 10"},
      {"smiles": "COCCOCCOCCOc1cccc(-c2cnc3ccc(-c4ccc(F)c(O[C@@H](C)Cn5cnnn5)c4)nn23)c1C#N", "note": "[compound 212]", "IC50": "< 10"},
      {"smiles": "C[C@@H](Cn1cnnn1)Oc1cc(-c2ccn3ncc(-c4ccccc4C(F)F)c3n2)ccc1F", "note": "[compound 149]", "IC50": "10 to 100"},
      {"smiles": "COc1cc(F)cc(-c2cnc3ccc(-c4cncc(N[C@@H](C)Cn5cnnn5)c4)nn23)c1C#N", "note": "[compound 482]", "IC50": "< 10"},
      {"smiles": "COC(=O)c1cccc(-n2cnc3ccc(-c4ccc(F)c(O[C@@H](C)Cn5cnnn5)c4)nc32)c1", "note": "[compound 13]", "IC50": "< 10"}
    ]},
    {"target": "T1, human CaMKIIδ", "assay": "Evaluation of in vitro CaMKII inhibitory activity (binding assay, TR-FRET)", "settings": "in vitro CaMKII inhibitory activity (binding assay), human CaMKIIδ; read-out: Act", "summary_of_the_method": "as §1", "units": {"IC50": "nM"}, "values": [
      {"smiles": "COc1cc(F)cc(-c2cnc3ccc(-c4cccc(O[C@@H](C)Cn5cncn5)n4)nn23)c1C#N", "note": "[Example 452, 4-fluoro-2-methoxy-6-[6-(6-{[(2S)-1-(1H-1,2,4-triazol-1-yl)propan-2-yl]oxy}pyridin-2-yl)imidazo[1,2-b]pyridazin-3-yl]benzonitrile]", "IC50": "< 10"},
      {"smiles": "C[C@@H](Cn1cnnn1)Oc1cccc(-c2ccc3ncc(-c4cc(Cl)cn(C)c4=O)n3n2)c1", "note": "[compound 334]", "IC50": "< 10"},
      {"smiles": "C[C@@H](Cn1cnnn1)Oc1cnnc(-c2ccc3ncc(-c4cc(F)ccc4C#N)n3n2)c1", "note": "[Example 298, 4-fluoro-2-[6-(5-{[(2S)-1-(1H-tetrazol-1-yl)propan-2-yl]oxy}pyridazin-3-yl)imidazo[1,2-b]pyridazin-3-yl]benzonitrile]", "IC50": "10 to 100"},
      {"smiles": "C[C@@H](Cn1cnnn1)Oc1cncc(-c2ccc3ncn(-c4cc(Cl)ccc4C#N)c3n2)n1", "note": "[compound 445]", "IC50": "10 to 100"},
      {"smiles": "COc1cc(F)cc(-c2cnc3ccc(-c4cncc(O[C@@H](C)Cn5cnnn5)n4)nn23)c1C#N", "note": "[Example 392, 4-fluoro-2-methoxy-6-[6-(6-{[(2S)-1-(1H-tetrazol-1-yl)propan-2-yl]oxy}pyrazin-2-yl)imidazo[1,2-b]pyridazin-3-yl]benzonitrile]", "IC50": "< 10"},
      {"smiles": "C[C@@H](Cn1cnnn1)Oc1cccc(-c2ccc3ncc(-c4nccc(N(C)CC(F)F)c4C#N)n3n2)c1", "note": "[compound 376]", "IC50": "10 to 100"},
      {"smiles": "COc1cc(F)cc(-n2cnc3ccc(-c4cncc(O[C@@H](C)Cn5cnnn5)n4)nc32)c1C#N", "note": "[compound 396]", "IC50": "< 10"},
      {"smiles": "C[C@@H](Cn1cnnn1)Oc1cccc(-c2ccc3ncc(-c4ncncc4C#N)n3n2)c1", "note": "[compound 273]", "IC50": "10 to 100"},
      {"smiles": "C[C@@H](Cn1cnnn1)Oc1cccc(-c2ccc3ncc(-c4nccc(NCC(F)(F)F)c4C#N)n3n2)c1", "note": "[compound 369]", "IC50": "10 to 100"},
      {"smiles": "C[C@@H](Cn1cnnn1)Oc1cc(-c2ccc3ncc(-c4ccc(=O)[nH]c4C#N)n3n2)ccc1F", "note": "[compound 255]", "IC50": "< 10"},
      {"smiles": "C[C@@H](Cn1cnnn1)Oc1cccc(-c2ccc3ncc(-c4ncnc(N(C)C)c4C#N)n3n2)c1", "note": "[compound 372]", "IC50": "10 to 100"},
      {"smiles": "COc1nccc(-c2cnc3ccc(-c4cccc(O[C@@H](C)Cn5cnnn5)c4)nn23)c1C#N", "note": "[compound 400]", "IC50": "< 10"},
      {"smiles": "C[C@@H](Cn1cnnn1)Oc1cc(-c2ccc3ncc(-c4ccnc(N)c4C#N)n3n2)ccc1F", "note": "[compound 233]", "IC50": "< 10"},
      {"smiles": "C[C@@H](Cn1cnnn1)Oc1cccc(-c2ccc3ncc(-c4nccc(NCC(F)F)c4C#N)n3n2)c1", "note": "[compound 367]", "IC50": "10 to 100"},
      {"smiles": "C[C@@H](Cn1cnnn1)Oc1cccc(-c2ccc3ncc(-c4ncccc4C#N)n3n2)n1", "note": "[compound 458]", "IC50": "> 100"},
      {"smiles": "C[C@@H](Cn1cnnn1)Oc1cccc(-c2ccc3ncn(-c4cc(Cl)ccc4C#N)c3n2)n1", "note": "[compound 442]", "IC50": "< 10"},
      {"smiles": "C[C@@H](Cn1cnnn1)Oc1nccc(-c2ccc3ncn(-c4cc(F)ccc4C#N)c3n2)n1", "note": "[Example 342, 4-fluoro-2-[5-(2-{[(2S)-1-(1H-tetrazol-1-yl)propan-2-yl]oxy}pyrimidin-4-yl)-3H-imidazo[4,5-b]pyridin-3-yl]benzonitrile]", "IC50": "10 to 100"},
      {"smiles": "Cc1cc(-c2cnc3ccc(-c4cccc(O[C@@H](C)Cn5cnnn5)c4)nn23)c(=O)n(C)c1", "note": "[compound 335]", "IC50": "< 10"},
      {"smiles": "C[C@@H](Cn1cnnn1)Oc1cccc(-c2ccc3ncc(-c4nnccc4C#N)n3n2)c1", "note": "[compound 280]", "IC50": "< 10"},
      {"smiles": "COc1cccc(-c2cnc3ccc(-c4cccc(O[C@@H](C)Cn5cnnn5)c4)nn23)c1C#N", "note": "[compound 322]", "IC50": "< 10"},
      {"smiles": "C[C@@H](Cn1cnnn1)Oc1cc(-c2ccc3ncn(-c4cc(F)ccc4C#N)c3n2)ncn1", "note": "[Example 305, 4-fluoro-2-[5-(6-{[(2S)-1-(1H-tetrazol-1-yl)propan-2-yl]oxy}pyrimidin-4-yl)-3H-imidazo[4,5-b]pyridin-3-yl]benzonitrile]", "IC50": "10 to 100"},
      {"smiles": "COCCOc1ccnc(-c2cnc3ccc(-c4cccc(O[C@@H](C)Cn5cnnn5)c4)nn23)c1C#N", "note": "[compound 469]", "IC50": "< 10"},
      {"smiles": "C[C@@H](Cn1cnnn1)Oc1cncc(-c2ccc3ncc(-c4cc(F)ccc4C#N)n3n2)c1", "note": "[compound 287, 4-fluoro-2-[6-(5-{[(2S)-1-(1H-tetrazol-1-yl)propan-2-yl]oxy}pyridin-3-yl)imidazo[1,2-b]pyridazin-3-yl]benzonitrile]", "IC50": "< 10"},
      {"smiles": "C[C@@H](Cn1cnnn1)Oc1cccc(-c2ccc3ncc(-c4c(C#N)ccc(F)c4F)n3n2)n1", "note": "[compound 422]", "IC50": "< 10"},
      {"smiles": "CC(O)c1ccc(C#N)c(-c2cnc3ccc(-c4cccc(O[C@@H](C)Cn5cnnn5)c4)nn23)n1", "note": "(some centres unmarked) [compound 390]", "IC50": "< 10"},
      {"smiles": "COc1cc(F)cc(-n2cnc3ccc(-c4cc(O[C@@H](C)Cn5cnnn5)ccn4)nc32)c1C#N", "note": "[compound 411]", "IC50": "< 10"},
      {"smiles": "C[C@@H](Cn1cnnn1)Oc1cccc(-c2ccc3ncc(-c4nc(N(C)C)ccc4C#N)n3n2)c1", "note": "[compound 350]", "IC50": "10 to 100"},
      {"smiles": "COc1cc(Cl)cc(-n2cnc3ccc(-c4cccc(O[C@@H](C)Cn5cnnn5)n4)nc32)c1C#N", "note": "[compound 454]", "IC50": "< 10"},
      {"smiles": "C[C@@H](Cn1cnnn1)Oc1cccc(-c2ccc3ncc(-c4nccc(OCC(F)F)c4C#N)n3n2)c1", "note": "[Example 354, 4-(2,2-difluoroethoxy)-2-[6-(3-{[(2S)-1-(1H-tetrazol-1-yl)propan-2-yl]oxy}phenyl)imidazo[1,2-b]pyridazin-3-yl]pyridine-3-carbonitrile]", "IC50": "< 10"},
      {"smiles": "C[C@@H](Cn1cnnn1)Oc1cc(-c2ccc3ncc(-c4cc(F)ccc4C#N)n3n2)ccc1F", "note": "[compound 246]", "IC50": "< 10"},
      {"smiles": "C[C@@H](Cn1cnnn1)Oc1cccc(-c2ccc3ncc(-c4cnccc4C#N)n3n2)c1", "note": "[Example 251, 3-[6-(3-{[(2S)-1-(1H-tetrazol-1-yl)propan-2-yl]oxy}phenyl)imidazo[1,2-b]pyridazin-3-yl]pyridine-4-carbonitrile]", "IC50": "< 10"}
    ]}
  ]
}
